# From article PMC9016025, “Translational imaging of the fibroblast activation protein (FAP) using the new ligand [^68Ga]Ga-OncoFAP-DOTAGA” (European Journal of Nuclear Medicine and Molecular Imaging, 2021)
# Experiments:
# Assay type in all cases: biochemical
# human FAP = biological target: T1, human FAP (Homo sapiens, UniProt Q12884); assay: In vitro fluorescence enzymatic inhibition assay, FAP; details: for IC50: recombinant FAP, fluorogenic DPP substrate 1, n = 3
# T1 construct: purchased BPS Bioscience 80100
# T1 sequence (Q12884 1-760): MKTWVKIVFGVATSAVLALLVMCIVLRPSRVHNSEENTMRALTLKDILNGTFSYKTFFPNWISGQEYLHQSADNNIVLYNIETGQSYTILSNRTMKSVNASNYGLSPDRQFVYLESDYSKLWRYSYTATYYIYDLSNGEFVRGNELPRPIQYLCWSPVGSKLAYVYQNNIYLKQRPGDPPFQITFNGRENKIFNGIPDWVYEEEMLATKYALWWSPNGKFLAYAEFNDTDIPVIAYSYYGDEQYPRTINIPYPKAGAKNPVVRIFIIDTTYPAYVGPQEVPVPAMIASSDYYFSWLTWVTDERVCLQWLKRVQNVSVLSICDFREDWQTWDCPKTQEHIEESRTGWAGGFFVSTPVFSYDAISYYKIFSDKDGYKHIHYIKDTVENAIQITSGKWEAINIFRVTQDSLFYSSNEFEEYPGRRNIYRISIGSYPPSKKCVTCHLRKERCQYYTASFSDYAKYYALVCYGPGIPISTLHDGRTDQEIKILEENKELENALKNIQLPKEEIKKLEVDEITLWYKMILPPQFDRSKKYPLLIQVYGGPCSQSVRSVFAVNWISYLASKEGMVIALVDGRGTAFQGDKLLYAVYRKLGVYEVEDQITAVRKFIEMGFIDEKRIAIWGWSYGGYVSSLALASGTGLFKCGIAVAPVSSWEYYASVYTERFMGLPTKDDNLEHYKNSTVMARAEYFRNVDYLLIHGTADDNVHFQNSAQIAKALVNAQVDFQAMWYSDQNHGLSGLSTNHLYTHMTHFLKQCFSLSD
# Protocol: (§1) Enzymatic inhibition activity and selectivity of OncoFAP derivatives was assessed by employing commercially available in vitro fluorescence assays for FAP, dipeptidyl peptidase 8 (DDP8), and prolyl oligo peptidase (POP) (BPS Bioscience, San Diego, CA, US). The fluorogenic substrate (Fluorogenic DPP substrate 1, Ala-Pro-AMC dipeptide, AMC: 7-amino-4-methylcumaryl) was incubated together with recombinant FAP, DDP, or POP/PREP in the presence or absence of test compounds. The enzymatic activity was correlated with the amount of cleaved fluorescent product measured by fluorescence spectroscopy. IC50 of each test compound was determined from the curves obtained by plotting fluorescence intensities at different concentrations of the inhibitor.
# (§2) The synthetic fluorometric DPP substrate 1 (BPS Bioscience, San Diego, CA, USA) Catalog no. […] Reaction rates were measured from the initial 30 min of the reaction profile where product release was linear with time and plotted as a function of inhibitor dose.
# [1] = biological target: T2, dipeptidyl peptidase 8 (DPP8) (Homo sapiens, UniProt Q6V1X1); assay: In vitro fluorescence enzymatic inhibition assay, DPP8; details: for IC50: recombinant DPP8, fluorogenic substrate
# T2 construct: purchased BPS Bioscience 80080
# T2 sequence (Q6V1X1 whole entry): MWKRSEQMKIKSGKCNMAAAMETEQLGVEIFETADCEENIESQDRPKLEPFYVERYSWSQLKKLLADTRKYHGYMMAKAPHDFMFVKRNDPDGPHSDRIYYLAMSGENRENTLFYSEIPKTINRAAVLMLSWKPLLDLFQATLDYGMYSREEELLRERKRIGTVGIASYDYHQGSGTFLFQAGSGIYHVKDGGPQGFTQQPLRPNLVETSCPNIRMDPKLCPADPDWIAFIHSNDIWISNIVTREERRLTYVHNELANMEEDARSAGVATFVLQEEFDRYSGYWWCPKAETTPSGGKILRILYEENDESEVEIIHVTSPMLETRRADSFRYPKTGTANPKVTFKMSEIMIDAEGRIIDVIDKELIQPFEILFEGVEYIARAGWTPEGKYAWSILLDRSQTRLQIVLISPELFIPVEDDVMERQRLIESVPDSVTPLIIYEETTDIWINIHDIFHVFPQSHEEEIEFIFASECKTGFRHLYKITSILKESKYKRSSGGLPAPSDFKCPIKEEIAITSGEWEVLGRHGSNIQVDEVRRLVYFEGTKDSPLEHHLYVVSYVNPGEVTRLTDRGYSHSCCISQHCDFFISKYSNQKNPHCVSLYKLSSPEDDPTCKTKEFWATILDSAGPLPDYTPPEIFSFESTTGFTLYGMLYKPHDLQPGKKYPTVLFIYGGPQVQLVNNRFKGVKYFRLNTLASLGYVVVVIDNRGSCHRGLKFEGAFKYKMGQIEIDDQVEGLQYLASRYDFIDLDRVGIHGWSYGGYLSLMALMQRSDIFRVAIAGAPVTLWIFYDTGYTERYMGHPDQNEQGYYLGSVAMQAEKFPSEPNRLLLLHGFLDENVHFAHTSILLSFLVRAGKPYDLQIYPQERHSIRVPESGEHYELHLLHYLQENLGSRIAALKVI
# Protocol: as §1, §2
# [2] = biological target: T3, prolyl oligo peptidase (POP) (Homo sapiens, UniProt P48147); assay: In vitro fluorescence enzymatic inhibition assay, POP; details: for selectivity for FAP compared to POP: from IC50 values; for IC50: recombinant POP/PREP
# T3 construct: purchased BPS Bioscience 80105
# T3 sequence (P48147 1-710): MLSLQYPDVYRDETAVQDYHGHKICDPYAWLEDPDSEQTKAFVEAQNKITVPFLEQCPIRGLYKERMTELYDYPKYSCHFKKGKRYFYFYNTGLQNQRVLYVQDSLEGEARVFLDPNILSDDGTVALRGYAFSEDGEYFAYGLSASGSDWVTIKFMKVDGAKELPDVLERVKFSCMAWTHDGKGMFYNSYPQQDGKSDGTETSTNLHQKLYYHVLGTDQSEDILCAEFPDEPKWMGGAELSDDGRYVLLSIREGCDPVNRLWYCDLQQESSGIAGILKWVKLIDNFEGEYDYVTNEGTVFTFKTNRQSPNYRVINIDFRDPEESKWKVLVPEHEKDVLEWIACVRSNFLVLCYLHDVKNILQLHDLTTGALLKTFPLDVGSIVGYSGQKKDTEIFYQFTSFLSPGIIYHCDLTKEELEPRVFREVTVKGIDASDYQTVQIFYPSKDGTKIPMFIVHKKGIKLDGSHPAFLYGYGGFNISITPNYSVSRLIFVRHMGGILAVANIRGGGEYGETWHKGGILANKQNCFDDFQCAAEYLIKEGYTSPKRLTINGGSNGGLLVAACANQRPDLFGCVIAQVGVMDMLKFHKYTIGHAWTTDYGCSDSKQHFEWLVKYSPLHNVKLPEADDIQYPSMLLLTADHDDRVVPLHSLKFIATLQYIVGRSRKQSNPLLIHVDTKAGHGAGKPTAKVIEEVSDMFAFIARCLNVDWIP
# Protocol: as §1, §2
Substance,superior FAP binding potency compared to ^natGa-FAPI-46 (human FAP; from IC50 values),IC50 (human FAP) [nM],IC50 [1] [nM],selectivity for FAP compared to POP [2] [fold],IC50 ([2]; fluorogenic substrate) [nM],selectivity for FAP compared to DPP8 ([1]; from IC50 values) [fold],IC50 [2] [nM]
[^natGa]Ga-OncoFAP-DOTAGA [^natGa-OncoFAP],ca. 16 fold,0.51 ± 0.11,6870 ± 111,96,49.2 ± 6.3,,
[^natGa]Ga-FAPI-46 [^natGa-FAPI-46],,8.37 ± 0.71,10200 ± 3000,> 1000,,> 1000,> 10000
